Molecular target: T1, PFOR (DVU3025, por) (Nitratidesulfovibrio vulgaris, UniProt Q726T1)
T1 construct: native, untagged; in-gel activity band from crude extract identified by LC-MS/MS; homo-octamer (cited)
Assay: in-gel activity stain (methyl viologen), band identified by LC-MS/MS
Format: biochemical
Settings: 20 mM pyruvate, 0.1 mM CoA, 2 mM methyl viologen, 16 mM dithioerythritol, 50 mM Tris-HCl pH 8.5, anaerobic

T1 sequence (Q726T1 1-1215): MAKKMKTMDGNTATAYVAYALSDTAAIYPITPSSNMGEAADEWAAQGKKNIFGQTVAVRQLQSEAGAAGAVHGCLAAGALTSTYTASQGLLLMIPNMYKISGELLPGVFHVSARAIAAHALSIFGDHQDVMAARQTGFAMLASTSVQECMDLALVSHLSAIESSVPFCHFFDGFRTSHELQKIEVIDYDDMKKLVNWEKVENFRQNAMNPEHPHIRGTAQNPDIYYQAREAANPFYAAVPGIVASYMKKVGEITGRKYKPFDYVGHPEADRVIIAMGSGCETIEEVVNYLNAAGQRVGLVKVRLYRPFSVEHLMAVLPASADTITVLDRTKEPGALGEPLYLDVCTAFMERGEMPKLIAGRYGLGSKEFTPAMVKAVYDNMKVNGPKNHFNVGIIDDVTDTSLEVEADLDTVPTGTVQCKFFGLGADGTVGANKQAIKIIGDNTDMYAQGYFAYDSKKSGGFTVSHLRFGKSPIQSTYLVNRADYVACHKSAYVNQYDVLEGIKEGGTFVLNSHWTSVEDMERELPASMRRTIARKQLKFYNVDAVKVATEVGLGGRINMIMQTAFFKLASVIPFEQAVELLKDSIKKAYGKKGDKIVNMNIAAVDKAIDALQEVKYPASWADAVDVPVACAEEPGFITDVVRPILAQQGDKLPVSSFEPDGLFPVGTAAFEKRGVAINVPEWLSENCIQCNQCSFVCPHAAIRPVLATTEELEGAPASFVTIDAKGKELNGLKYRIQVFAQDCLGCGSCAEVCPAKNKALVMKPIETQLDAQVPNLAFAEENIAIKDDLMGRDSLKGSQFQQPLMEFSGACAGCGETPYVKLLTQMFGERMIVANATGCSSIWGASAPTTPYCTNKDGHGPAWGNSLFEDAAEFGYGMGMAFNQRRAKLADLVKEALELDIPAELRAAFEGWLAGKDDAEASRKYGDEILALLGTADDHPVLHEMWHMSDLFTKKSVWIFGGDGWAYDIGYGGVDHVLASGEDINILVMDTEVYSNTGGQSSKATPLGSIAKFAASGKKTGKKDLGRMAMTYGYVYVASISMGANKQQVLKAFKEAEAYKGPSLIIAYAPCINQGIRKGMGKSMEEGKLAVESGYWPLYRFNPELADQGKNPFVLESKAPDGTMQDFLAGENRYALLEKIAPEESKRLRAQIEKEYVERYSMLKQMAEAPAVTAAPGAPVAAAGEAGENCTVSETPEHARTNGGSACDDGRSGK

SMILES | in-gel activity stain (methyl viologen), band identified by LC-MS/MS
CC(C)(COP(=O)(O)OP(=O)(O)OC[C@H]1O[C@@H](n2cnc3c(N)ncnc32)[C@H](O)[C@@H]1OP(=O)(O)O)[C@@H](O)C(=O)NCCC(=O)NCCS [CoA] | Two bands were stained with methyl viologen in the presence of pyruvate and CoA
CC(=O)C(=O)O [pyruvate] | Two bands were stained with methyl viologen in the presence of pyruvate and CoA

Reference: PMC4481167, “The primary pathway for lactate oxidation in Desulfovibrio vulgaris” (Frontiers in Microbiology, 2015)
